pIC50: −log10 of the molar value.

Consider 22 compounds from patent US20250215029A1 (Recludix Pharma, Inc., priority 2022, published 2025).

The first experiment concerns the target T1, pY641-STAT6 in PBMC (Homo sapiens, UniProt P42226).
T1 construct: Cryopreserved Peripheral Blood Mononuclear Cells (PBMC) are from AllCells; host or cells: cryopreserved PBMC
T1 sequence (P42226 1-847): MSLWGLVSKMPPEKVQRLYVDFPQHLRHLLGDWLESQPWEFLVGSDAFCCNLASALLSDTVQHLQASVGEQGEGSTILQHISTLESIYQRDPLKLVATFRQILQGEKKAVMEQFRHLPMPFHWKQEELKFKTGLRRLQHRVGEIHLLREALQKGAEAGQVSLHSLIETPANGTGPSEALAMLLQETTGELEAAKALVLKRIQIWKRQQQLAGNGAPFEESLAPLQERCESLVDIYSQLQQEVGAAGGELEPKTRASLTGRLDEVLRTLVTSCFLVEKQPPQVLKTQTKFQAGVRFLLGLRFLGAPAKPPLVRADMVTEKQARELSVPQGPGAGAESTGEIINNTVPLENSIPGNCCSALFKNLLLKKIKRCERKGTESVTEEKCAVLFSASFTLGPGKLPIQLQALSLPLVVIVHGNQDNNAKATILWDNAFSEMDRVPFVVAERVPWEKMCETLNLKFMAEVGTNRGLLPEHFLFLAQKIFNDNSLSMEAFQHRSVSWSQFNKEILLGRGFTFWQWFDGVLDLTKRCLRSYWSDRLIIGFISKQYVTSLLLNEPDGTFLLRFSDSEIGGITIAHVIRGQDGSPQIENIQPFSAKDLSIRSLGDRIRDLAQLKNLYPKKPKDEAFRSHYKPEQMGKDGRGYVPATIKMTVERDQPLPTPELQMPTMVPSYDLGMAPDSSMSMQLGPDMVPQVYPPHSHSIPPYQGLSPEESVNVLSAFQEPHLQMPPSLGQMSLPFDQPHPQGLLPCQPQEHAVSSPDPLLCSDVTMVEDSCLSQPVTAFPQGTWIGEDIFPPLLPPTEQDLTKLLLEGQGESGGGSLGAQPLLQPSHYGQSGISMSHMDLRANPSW
Nature of the experiment: MSD-pSTAT-PBMC Assay (pSTAT6, IL-4 stimulated). Format: cell-based. The conditions noted are these: PBMC, compound 3 hrs, then 1 ng/mL IL-4 for 10 min; Table 115; read-out: STAT6. From the text: Cryopreserved Peripheral Blood Mononuclear Cells (PBMC) are from AllCells. Recombinant Human IL-4 and IL-6 are from Peprotech. Mouse monoclonal anti-STAT3 antibody, rabbit monoclonal anti-pY705-STAT3 antibody, rabbit monoclonal Anti-pY641-STAT6 antibody, and lysis buffer are from Cell Signaling Technology (CST). Mouse monoclonal anti-STAT6 antibody is from BioLegend. Assay plates, blocker, and anti-rabbit secondary antibody are from Meso Scale Discovery (MSD).
Cyropreserved PBMCs were thawed out and allowed to recover overnight in IMDM+10% heat-inactivated FBS prior to plating 50,000 (STAT3) or 25,000 (STAT6) cells per well in 96-well U-bottom tissue culture plates. Cells were treated with compound for 3 hrs, then stimulated with 10 ng/mL IL-6 (STAT3) or 1 ng/mL IL-4 (STAT6) for 10 min. Cells were then spun down and washed with ice-cold PBS prior to lysing the cell pellet with 1× lysis buffer (CST) with 1× HALT protease and phosphatase inhibitor cocktail (Thermo). Lysates were transferred to and incubated overnight at 4° C. with shaking in QuickPlex 96-well high bind assay plates (MSD) pre-coated overnight with 30 μL per well of 0.6 μg/mL mouse monoclonal anti-STAT3 antibody (STAT3) or 2 μg/mL mouse monoclonal anti-STAT6 antibody (STAT6) in 1× PBS, and pre-blocked for 1 hour with 3% Blocker-A (MSD). Captured protein in the assay plates were then washed and probed with 25 μL per well of […] rabbit monoclonal anti-pY705-STAT3 antibody (STAT3) or 0.18 μg/ml rabbit monoclonal Anti-pY641-STAT6 antibody (STAT6) in 1% Blocker-A for 1 hour at room temperature with shaking, then washed and probed with 25 ul per well of 1 ug/ml Sulfo-TAG Labeled Goat Anti-Rabbit Antibody (MSD) in 1% Blocker-A for 1 hour at room temperature with shaking. Assay plates were then washed and 150 μL of 1× Read Buffer-T (MSD) was added to each well prior to reading on an SQ120 MSD Plate Reader. Assay signal from each sample was subtracted by the signal from unstimulated control wells and normalized to DMSO control wells. IC50 values were calculated using Graph Pad Prism Dose-Response Nonlinear Regression with variable slope. For both pSTAT3 and pSTAT6 A=≤100 nM; B 100-1000 nM; C=>1000-3000 nM; D=>3 μM; and NT=Not Tested.
For `CC(C)OC(=O)OCOP(=O)(OCCSC(=O)C(C)(C)C)C(F)(F)c1ccc2sc(C(=O)N[C@H]3CCCC[C@H]4CC[C@@H](C(=O)N5C[C@@H](C#N)[C@H](c6ccccc6)C5)N4C3=O)cc2c1` (single isomer, unassigned) [Compound 1012], the pIC50 was more than 7.00.

Consider `COCCOCC(=O)SCCOP(=O)(OCCSC(=O)COCCOC)C(F)(F)c1ccc2ccc(C(=O)N[C@H]3CCCC[C@H]4CC[C@@H](C(=O)N5C[C@@H](C#N)[C@H](c6cc[nH]c(=O)c6)C5)N4C3=O)cc2c1` (single isomer, unassigned) [Compound 1013], for which the pIC50 is 6.00 to 7.00. In the case of `CC(C)(C)C(=O)SCCOP(=O)(OCCSC(=O)C(C)(C)C)C(F)(F)c1ccc2sc(C(=O)N[C@H]3CCC[C@H]4CC[C@@H](C(=O)N5C[C@@H](c6ccccc6)[C@H](C#N)C56CC6)N4C3=O)cc2c1` (single isomer, unassigned) [Compound 1080], the pIC50 is more than 7.00.

The same experiment, now with this note: STAT6, PBMC, compound 3 hrs, then 1 ng/mL IL-4 for 10 min; Table 115.
`CCCOC(=O)[C@H](C)NP(=O)(Oc1ccccc1)[C@@H](F)c1ccc2sc(C(=O)N[C@H]3CCCC[C@H]4CC[C@@H](C(=O)N5C[C@H](c6cccc(C#N)c6)[C@@H](C#N)C56CC6)N4C3=O)cc2c1` (single isomer, unassigned) [Compound 339] had a pIC50 of more than 7.00. On to `CCCOC(=O)[C@H](C)NP(=O)(Oc1ccccc1)[C@@H](F)c1ccc2sc(C(=O)N[C@H]3CCC[C@H]4CC[C@@H](C(=O)N5C[C@@H](c6cccc(C)c6)[C@H](C#N)C56CC6)N4C3=O)cc2c1` (single isomer, unassigned) [Compound 341], for which the pIC50 was more than 7.00. In turn, `CCCOC(=O)[C@H](C)NP(=O)(Oc1ccccc1)[C@H](F)c1ccc2sc(C(=O)N[C@H]3CCC[C@H]4CC[C@@H](C(=O)N5C[C@@H](c6cccnc6)[C@H](C#N)C56CC6)N4C3=O)cc2c1` (single isomer, unassigned) [Compound 355] showed a pIC50 of more than 7.00. Regarding `CCCOC(=O)[C@H](C)NP(=O)(Oc1ccccc1)[C@@H](F)c1ccc2sc(C(=O)N[C@H]3CCC[C@H]4CC[C@@H](C(=O)N5C[C@H](c6cccnc6)[C@@H](C#N)C56CC6)N4C3=O)cc2c1` (single isomer, unassigned) [Compound 362], the pIC50 is more than 7.00. Same read-out and setting: to `CCCOC(=O)[C@H](C)NP(=O)(Oc1ccccc1)[C@@H](F)c1ccc2sc(C(=O)N[C@H]3CCC[C@H]4CC[C@@H](C(=O)N5C[C@H](c6cncc(Cl)c6)[C@@H](C#N)C56CC6)N4C3=O)cc2c1` (single isomer, unassigned) [Compound 367] belongs 6.00 to 7.00; to `CCCOC(=O)[C@H](C)NP(=O)(Oc1ccccc1)[C@@H](F)c1ccc2sc(C(=O)N[C@H]3CCC[C@H]4CC[C@@H](C(=O)N5C[C@H](c6cncc(Cl)c6)[C@@H](C#N)C56CC6)N4C3=O)cc2c1` (single isomer, unassigned) [Compound 368], less than 5.52. In the case of `CCCOC(=O)[C@H](C)NP(=O)(Oc1ccccc1)[C@@H](F)c1ccc2sc(C(=O)N[C@H]3CCC[C@H]4CC[C@@H](C(=O)N5C[C@H](c6cncc(OC)c6)[C@@H](C#N)C56CC6)N4C3=O)cc2c1` (single isomer, unassigned) [Compound 369], the pIC50 is 5.52 to 6.00. On the same count and under the same terms, to `CCCOC(=O)[C@H](C)NP(=O)(Oc1ccccc1)[C@@H](F)c1ccc2sc(C(=O)N[C@H]3CCCC[C@H]4CC[C@@H](C(=O)N5C[C@H](c6cncc(Cl)c6)[C@@H](C#N)C56CC6)N4C3=O)cc2c1` (single isomer, unassigned) [Compound 370] belongs more than 7.00; to `CCCOC(=O)[C@H](C)NP(=O)(Oc1ccccc1)[C@@H](F)c1ccc2sc(C(=O)N[C@H]3CCCC[C@H]4CC[C@@H](C(=O)N5C[C@H](c6cncc(Cl)c6)[C@@H](C#N)C56CC6)N4C3=O)cc2c1` (single isomer, unassigned) [Compound 371], 5.52 to 6.00. In turn, `CCCOC(=O)[C@H](C)NP(=O)(Oc1ccccc1)[C@@H](F)c1ccc2sc(C(=O)N[C@H]3CCCC[C@H]4CC[C@@H](C(=O)N5C[C@H](c6cncc(OC)c6)[C@@H](C#N)C56CC6)N4C3=O)cc2c1` (single isomer, unassigned) [Compound 372] had a pIC50 of less than 5.52. For the compound `CCCOC(=O)[C@H](C)NP(=O)(Oc1ccccc1)C(C)c1ccc2ccc(C(=O)N[C@H]3CCCC[C@H]4CC[C@@H](C(=O)N5C[C@@H](c6ccccc6)CC56CC6)N4C3=O)cc2c1` (single isomer, unassigned) [Compound 425], the pIC50 is less than 5.52. With `CCCOC(=O)[C@H](C)N[P@@](=O)(Oc1ccccc1)[C@@H](F)c1ccc2sc(C(=O)N[C@H]3CCCC[C@H]4CC[C@@H](C(=O)N5C[C@@H](c6cccnc6)CC56CC6)N4C3=O)cc2c1` (single isomer, unassigned) [Compound 461], the pIC50 is more than 7.00. `CCCOC(=O)[C@H](C)NP(=O)(Oc1ccccc1)[C@@H](F)c1ccc2sc(C(=O)N[C@H]3CCC[C@H]4CC[C@@H](C(=O)N5C[C@H](c6ccc(C)cc6)[C@@H](C#N)C56CC6)N4C3=O)cc2c1` (single isomer, unassigned) [Compound 478] gave a pIC50 of more than 7.00. Take `CCCOC(=O)[C@H](C)NP(=O)(Oc1ccccc1)[C@@H](F)c1ccc2sc(C(=O)N[C@H]3CCCC[C@H]4CC[C@@H](C(=O)N5C[C@@H](c6cccc(C(F)F)c6)[C@H](C#N)C56CC6)N4C3=O)cc2c1` (single isomer, unassigned) [Compound 482]: the pIC50 is more than 7.00.

The experiment is the same for the next values; noted with them: read-out: STAT6; PBMC, compound 3 hrs, then 1 ng/mL IL-4 for 10 min; Table 115.
For `CCCOC(=O)[C@H](C)NP(=O)(Oc1ccccc1)[C@@H](F)c1ccc2sc(C(=O)N[C@H]3CCCC[C@H]4CC[C@@H](C(=O)N5C[C@H](c6cccc(OC)c6)[C@@H](C#N)C56CC6)N4C3=O)cc2c1` (single isomer, unassigned) [Compound 336], the pIC50 is more than 7.00. For the compound `CCCOC(=O)[C@H](C)NP(=O)(Oc1ccccc1)[C@@H](F)c1ccc2sc(C(=O)N[C@H]3CCCC[C@H]4CC[C@@H](C(=O)N5C[C@H](c6cccc(C#N)c6)[C@@H](C#N)C56CC6)N4C3=O)cc2c1` (single isomer, unassigned) [Compound 340], the pIC50 was more than 7.00. For `CCCOC(=O)[C@H](C)NP(=O)(Oc1ccccc1)[C@@H](F)c1ccc2sc(C(=O)N[C@H]3CCC[C@H]4CC[C@@H](C(=O)N5C[C@@H](c6cccc(C)c6)[C@H](C#N)C56CC6)N4C3=O)cc2c1` (single isomer, unassigned) [Compound 342], the pIC50 is more than 7.00. On the same count and under the same terms, to `CCCOC(=O)[C@H](C)NP(=O)(Oc1ccccc1)[C@@H](F)c1ccc2sc(C(=O)N[C@H]3CCC[C@H]4CC[C@@H](C(=O)N5C[C@H](c6cccnc6)[C@@H](C#N)C56CC6)N4C3=O)cc2c1` (single isomer, unassigned) [Compound 363] belongs more than 7.00. Still for that read-out and setting: to `CCCOC(=O)[C@H](C)NP(=O)(Oc1ccccc1)[C@@H](F)c1ccc2sc(C(=O)N[C@H]3CCCC[C@H]4CC[C@@H](C(=O)N5C[C@@H](c6cccc(C(F)F)c6)[C@H](C#N)C56CC6)N4C3=O)cc2c1` (single isomer, unassigned) [Compound 483] belongs more than 7.00.
